Results published in patent publication US20240360459A1 (Nankai University, priority 2023, published 2024).

Target: Mtb ATP synthase (Mycobacterium tuberculosis, UniProt P9WPS1+P9WPV7)
Assay: biochemical
Assay type: binding

**Q.** With `COc1nc2ccc(Br)cc2cc1[C@@H](c1ccccc1)[C@@](O)(CCN(C)C)c1cccc2ccccc12` [bedaquiline] as the compound, how does the Kd read?
**A.** The Kd was 36.5 µM.
